Source: US20260034094A1, “COMPOSITIONS AND METHODS FOR INDUCING FERROPTOSIS” (Kojin Therapeutics, Inc., priority 2022, published 2026)

Tested on: RKN cells
Assay: RKN cell profiling assay (cell viability, CellTiter-Glo)
Type: cell-based
Details: cell viability, read-out: Cell Killing EC50
Description: RKN cells were suspended in assay medium (F-12 medium supplemented with 10% FBS and penicillin/streptomycin) and seeded at 1,000 cells per well (30 μL total volume) in opaque white 384-well plates (Corning). Cells were allowed to adhere for 24 h at 37° C. (95% humidity, 5% CO2) and then exposed to compounds disclosed herein for 72 h, or in the present case, 96 h. DMSO stock solutions of compounds were added to cells using a D300e Digital Dispenser (Tecan). The final DMSO concentration in each well was normalized to 0.5% (v/v) after compound treatment. Cell viability was measured using CellTiter-Glo (Promega). After incubation for 15 min at room temperature, luminescence was measured using a PHERAstar FSX microplate reader (BMG Labtech). Ferroptosis rescue experiments were performed as described previously using cells treated with ferrostatin-1 (fer-1, 1.5 μM) when seeding assay plates. Dose-response data were analyzed to determine EC50 values with GraphPad Prism 9 software using a four-parameter logistic equation or CDD Vault (Collaborative Drug Discovery) using the Levenberg-Marquardt algorithm.

Compound | EC50
Cc1ccc(-c2cccc(C(CCS(=N)(=O)CC[C@H](N)C(=O)O)C(F)(F)F)c2)cc1 (some centres unmarked) [Compound 285] | ≥ 1000 µM
Cc1cccc(-c2cccc(C(CCS(=N)(=O)CC[C@H](N)C(=O)O)C(F)(F)F)c2)c1 (some centres unmarked) [Compound 286] | ≥ 1000 µM
N=S(=O)(CCC(c1cccc(-c2cccc(F)c2)c1)C(F)(F)F)CC[C@H](N)C(=O)O (some centres unmarked) [Compound 287] | ≥ 1000 µM
N=S(=O)(CCC(c1cccc(-c2ccc(Cl)cc2Cl)c1)C(F)(F)F)CC[C@H](N)C(=O)O (some centres unmarked) [Compound 288] | ≥ 1000 µM
Cc1ccc(-c2cccc(C(CCS(=N)(=O)CC[C@H](N)C(=O)O)C(F)(F)F)c2)cc1F (some centres unmarked) [Compound 290] | ≥ 1000 µM
N=S(=O)(CCC(c1ccc(S(=O)(=O)Cc2ccccc2)cc1)C(F)(F)F)CC[C@H](N)C(=O)O (some centres unmarked) [Compound 291] | ≥ 1000 µM
N=S(=O)(CCC(c1cccc2ccccc12)C(F)(F)F)CC[C@H](N)C(=O)O (some centres unmarked) [Compound 311] | < 1000 µM
N=S(=O)(CCC(c1ccccn1)C(F)(F)F)CC[C@H](N)C(=O)O (some centres unmarked) [Compound 313] | < 1000 µM
N=S(=O)(CCC(c1ccc(-c2ccccc2)cc1Cl)C(F)(F)F)CC[C@H](N)C(=O)O (some centres unmarked) [Compound 315] | ≥ 1000 µM
N=S(=O)(CCC(c1ccc(Oc2ccccc2)cc1)C(F)(F)F)CC[C@H](N)C(=O)O (some centres unmarked) [Compound 316] | < 1000 µM
N=S(=O)(CCC(c1ccc(-c2ccc(Cl)cc2Cl)cn1)C(F)(F)F)CC[C@H](N)C(=O)O (some centres unmarked) [Compound 317] | < 1000 µM
N=S(=O)(CCC(c1ccc(Oc2ccc(Cl)cc2Cl)cc1)C(F)(F)F)CC[C@H](N)C(=O)O (some centres unmarked) [Compound 318] | < 1000 µM
N=S(=O)(CCC(CO)C(F)(F)F)CC[C@H](N)C(=O)O (some centres unmarked) [Compound 320] | < 1000 µM
N=S(=O)(CC[C@H](N)C(=O)O)CCC(O)(c1ccn(-c2ccc(Cl)cc2Cl)n1)C(F)(F)F (some centres unmarked) [Compound 336] | ≥ 1000 µM
N=S(=O)(CC[C@H](N)C(=O)O)CCC(O)(c1cc(-c2ccc(Cl)cc2Cl)cs1)C(F)(F)F (some centres unmarked) [Compound 337] | < 1000 µM
N=S(=O)(CC[C@H](N)C(=O)O)CCC(O)(c1ccc(OC2CCCCC2)cc1)C(F)(F)F (some centres unmarked) [Compound 339] | < 1000 µM
N=S(=O)(CC[C@H](N)C(=O)O)CCC(O)([C@H]1CC[C@H](c2ccc(Cl)cc2Cl)CC1)C(F)(F)F (some centres unmarked) [Compound 340] | < 1000 µM
N=S(=O)(CC[C@H](N)C(=O)O)CCC(O)([C@H]1CC[C@@H](c2ccc(Cl)cc2Cl)CC1)C(F)(F)F (some centres unmarked) [Compound 341] | < 1000 µM
N=S(=O)(CC[C@H](N)C(=O)O)CCC(O)(c1ccc(Oc2ccc(Cl)cc2Cl)cc1)C(F)(F)F (some centres unmarked) [Compound 342] | < 1000 µM
N=S(=O)(CC[C@H](N)C(=O)O)CCC(O)(c1cnc(-c2ccc(Cl)cc2Cl)nc1)C(F)(F)F (some centres unmarked) [Compound 366] | < 1000 µM
N=S(=O)(CC[C@H](N)C(=O)O)CCC(O)(c1cnc(-c2ccc(Cl)cc2Cl)cn1)C(F)(F)F (some centres unmarked) [Compound 367] | < 1000 µM
N=S(=O)(CC[C@H](N)C(=O)O)CCC(O)(c1ccc2ccccc2n1)C(F)(F)F (some centres unmarked) [Compound 373] | < 1000 µM
N=S(=O)(CCC(c1ccc2[nH]nnc2c1)C(F)(F)F)CC[C@H](N)C(=O)O (some centres unmarked) [Compound 393] | ≥ 1000 µM
N=S(=O)(CCC(c1ccccc1O)C(F)(F)F)CC[C@H](N)C(=O)O (some centres unmarked) [Compound 397] | < 1000 µM
N=S(=O)(CCC(c1ccc2[nH]cnc2c1)C(F)(F)F)CC[C@H](N)C(=O)O (some centres unmarked) [Compound 399] | ≥ 1000 µM
N=S(=O)(CC[C@H](N)C(=O)O)CCC1(c2ccc(Oc3ccc(Cl)cc3Cl)cc2)CCC1 (some centres unmarked) [Compound 403] | ≥ 1000 µM
N=S(=O)(CCC(N1CCN(c2ccc(Cl)cc2Cl)CC1)C(F)(F)F)CC[C@H](N)C(=O)O (some centres unmarked) [Compound 423] | < 1000 µM
Cc1ccccc1-c1ccc(C(O)(CCS(=N)(=O)CC[C@H](N)C(=O)O)C(F)(F)F)cc1 (some centres unmarked) [Compound 429] | < 1000 µM
Cc1cc(Cl)ccc1-c1ccc(C(O)(CCS(=N)(=O)CC[C@H](N)C(=O)O)C(F)(F)F)cc1 (some centres unmarked) [Compound 430] | < 1000 µM
